PubChem BioAssay (NCI)
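Method: 48-hour compound exposure of cells in 96-well plates, five concentrations, linear interpolation of endpoints. At the GI50, growth is halved. Definition used: TGI = concentration required for complete inhibition of growth.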 Where a SMILES comes first, the peptide text is derived from it. [ ]: non-standard residue; d: D form. The star is where a group is joined. ξ: configuration not given here. X37 = O=C(OCc1ccccc1)[C@@H]1CCC[C@H]1N*; Fmoc = O=C(OCC1c2ccccc2-c2ccccc21)*; ξW = NC(Cc1c[nH]c2ccccc12)C(=O)O; ξF = NC(Cc1ccccc1)C(=O)O; Boc = CC(C)(C)OC(=O)*; ξK = NCCCCC(N)C(=O)O; ξT = CC(O)C(N)C(=O)O; tBu = CC(C)(C)*

What was measured:
Test in all cases: NCI anticancer screen, dose series, 48 h
[1] = system: U251 CNS
[2] = system: XF 498 CNS
[3] = system: LXFL 529 NSCLC
[4] = system: M19-MEL melanoma
[5] = system: DLD-1 colon
[6] = system: KM20L2 colon
[7] = system: DMS 273 small cell lung
[8] = system: DMS 114 small cell lung
[9] = system: SNB-78 CNS
[10] = system: HOP-18 NSCLC

| Compound | TGI [1] [µM] | also measured |
| --- | --- | --- |
| Cc1ccc(S(=O)/C=C(\NC(=O)OCc2ccccc2)C(F)(F)F)cc1 (stereo unspecified) | 55.2 | – |
| CCC1=C(C)C2=NC1=CC1=NC(=C(CC)/C1=C/O)C=C1N=C3C(=C1C)C(=O)C(C(=O)OC)C3=C1NC(=C2)C(C)C1CCC(=O)OC (stereo unspecified) | > 100 | – |
| Nc1nc(Cl)cc(NCC2(CO)CC(CCCCc3ccccc3)C2)n1 (stereo unspecified) | > 100 | – |
| NC12c3c4cccc3Oc3cccc(c31)Oc1cccc(c12)O4 | > 50 | – |
| O=C(O)CCCN1CCCCC1 | > 100 | – |
| CC(=O)NC1C(OCC(=O)NC(C)C(=O)NC(CCC(=O)NCCCCCNc2ccc([N+](=O)[O-])c3[nH]c4ccccc4c(=O)c23)C(N)=O)C(O)C(CO)OC1(C)OCc1ccccc1 (stereo unspecified) | > 50 | – |
| CC(C)(C)c1cc(C2COC(=O)COCCOCC(=O)OCCOCCO2)cc(C(C)(C)C)c1O (stereo unspecified) | > 100 | – |
| COc1ccc2cc(C(=O)NCCc3ccccc3)ccc2c1OC | > 100 | – |
| NS(=O)(=O)c1ccc(CNC(=S)NC(=O)Nc2ccc(Cl)c(Cl)c2)cc1 | 26.7 | – |
| Cc1ccc(S(=O)(=O)OC2CN3CCC2CC3)cc1 (stereo unspecified) | > 100 | – |
| CC1OC(OP(=O)(OCc2ccccc2)OCc2ccccc2)C(OC(=O)c2ccccc2)C(OC(=O)c2ccccc2)C1I (stereo unspecified) | > 100 | TGI [2]: > 100 µM; TGI [3]: > 100 µM; TGI [4]: > 100 µM; TGI [5]: > 100 µM; TGI [6]: > 100 µM; TGI [7]: > 100 µM |
| CCCCCCc1cc(C=O)sc1-c1ccc(-c2sc(-c3ccc(-c4ccc(-c5cc(CCCCCC)c(-c6ccc(-c7sc(C=O)cc7CCCCCC)s6)s5)s4)s3)cc2CCCCCC)s1 | > 100 | – |
| O=C(/C=C1\N=C(c2ccccc2)N(c2ccc3c(c2)Sc2cc(N4C(=O)/C(=C/C(=O)/C=C/c5ccccc5)N=C4c4ccccc4)ccc2N3)C1=O)/C=C/c1ccccc1 | 57.8 | – |
| CCOC(=O)/C(O)=C(\C=N\C(=S)Nc1ccc(Cl)c(Cl)c1)C(=O)OCC | > 100 | – |
| CC1(C)OC1CC/C(=C/CBr)CBr (stereo unspecified) | 29.3 | – |
| CCCCc1cc2c(cc1O)CCC1C2CC[C@@]2(C)C1CC[C@@H]2O (stereo partly specified) | 64.7 | – |
| CC(C)(C)NCC(O)COc1cccc2[nH]c(C#N)cc12 (stereo unspecified) | > 100 | – |
| CC1(C(O)c2ccccc2)CN(C(C)(C)C)C(=O)/C1=C\Sc1ccccc1 (stereo unspecified) | > 100 | – |
| CCOc1ccc(N=NC2C(=O)N(C(=O)CC(=O)Nc3ccc(Cl)cc3)N=C2C)cc1 (stereo unspecified) | > 100 | – |

| Compound | TGI [1] [µM] | also measured |
| --- | --- | --- |
| S=C1c2cc(Cl)ccc2NC(=NC2CCCC2)C2CSCN12 (stereo unspecified) | > 100 | – |
| CC(=O)c1ccc2c(c1)CC1(C2)Cc2cc3c(cc2C1)C(=O)CC3 (stereo unspecified) | 34 | – |
| CCC1OC2C(CC=C(C)C)=C3OC(C)(O)C(C)(CC)C(O)C3=C3OC(=O)C=C1C32 (stereo unspecified) | > 100 | – |
| COC(=O)c1nc2c(C)c(O)c(O)c([C@H](C)CCC=C(C)C)c2o1 | > 100 | – |
| CC(=O)C1=CC=C/C1=N\Nc1ccccc1 | 9.36 | – |
| COc1cc(O)c(C(=O)/C=C/c2ccc(O)cc2)cc1Oc1ccc(C(=O)/C=C/c2ccc(O)cc2)c(O)c1 | 4.97 | – |
| COc1ccc(N=NN2CCCC2)cc1 | > 100 | – |
| CC(OC(C)(C)C)C(NC(=O)C(CCCCNC(=O)OC(C)(C)C)NC(=O)C(Cc1c[nH]c2ccccc12)NC(=O)C(Cc1ccccc1)NC(=O)OCC1c2ccccc2-c2ccccc21)C(=O)NC(Cc1ccccc1)C(=O)N[C@@H]1CCC[C@H]1C(=O)OCc1ccccc1 (stereo partly specified) (Fmoc-[ξF][ξW][ξK](Boc)[ξT](tBu)[ξF]-X37) | > 100 | – |
| COc1ccc(N(C(=O)OC(C)(C)C)[C@@H]2C(C)=C[C@H]([S@@](=O)c3ccc(C)cc3)[C@@H]3C(=O)N(C)C(=O)[C@@H]32)cc1 | 31.9 | – |
| CC1(c2cccc(C3CCC4(C=CC3=O)OCCO4)c2)OCCO1 (stereo unspecified) | 33.8 | TGI [3]: 3.97 µM; TGI [4]: 25.8 µM; TGI [5]: 11 µM; TGI [8]: 3.68 µM; TGI [6]: 16.8 µM; TGI [7]: 22.9 µM; TGI [9]: 48.7 µM |
| O=Cc1cc(O)c(O)c(O)c1-c1c(C=O)cc(O)c(O)c1O | > 100 | TGI [3]: > 100 µM; TGI [4]: > 100 µM; TGI [5]: > 100 µM; TGI [8]: > 100 µM; TGI [6]: > 100 µM; TGI [7]: > 100 µM; TGI [9]: > 100 µM; TGI [10]: > 100 µM |
| N#Cc1nn(-c2ccc(Cl)cc2)c(N)c2c(=N)n3nc(-c4ccccc4)cc3nc12 | > 55.8 | TGI [2]: > 100 µM; TGI [3]: > 54.4 µM; TGI [5]: > 64.2 µM; TGI [6]: > 100 µM; TGI [7]: > 100 µM; GI50 [9]: > 100 µM; TGI [9]: > 100 µM |
| CC(C)(C)[C@@H]1NC(=O)CN1C(=O)OCc1ccccc1 | > 100 | – |
| COc1cccc(-n2nnc3c(N)nc(N)nc32)c1 | > 100 | – |
| Cc1ccc(Nc2ncnc3sc(SCc4ccccc4)nc23)cc1 | > 100 | – |
| Cc1cc(SCC(=O)c2ccc(Br)cc2)cc(C)[o+]1 | 90 | – |
| Brc1ccc(-c2ccc(-c3ccc(Br)s3)s2)s1 | > 100 | – |
| CC(=O)c1nc2ccccc2n1CC(=O)c1ccc([N+](=O)[O-])cc1 | 19.9 | – |
| Cc1[nH]n(C(=O)c2ccccc2O)c(=O)c1/C=C1\C(=O)C=Cc2ccccc21 | 40.7 | TGI [2]: 29 µM; TGI [3]: 42.4 µM; TGI [8]: 0.801 µM; TGI [6]: 75.6 µM; TGI [9]: 98.8 µM |
